Laboratory results reported in patent publication US5030760A, “Tetrahydrophthalimides, and their production and use” (Sumitomo Chemical Company, Ltd., priority 1981, dated 1991).

Assays:
Conditions in all cases: 3 weeks
broad-leaved weed = assay: Test Example 7, flooded paddy pot dripping, herbicidal activity; assay type: in vivo
Method: (§1) The application of the tetrahydrophthalimides (I) as herbicides will be illustratively shown in the following Examples wherein the phytotoxicity to cultivated plants and the herbicidal activity on weeds were evaluated as follows: the aerial parts of the test plants were cut off and weighed (fresh weight); the percentage of the fresh weight of the treated plant to that of the untreated plant was calculated with the latter fresh weight taken as 100; and the crop damage and the herbicidal activity were evaluated by the standard given in the table below. The rating values of phytotoxicity, 0 and 1, and those of herbicidal effect, 5 and 4, are generally regarded as satisfactory to protect cultivated plants and control weeds, respectively. The rating values in the paddy field test alone were calculated from the dry weight of the test plants.
(§2) Wagner's pots (1/5000 are) were filled with paddy field soil and water was poured therein to make a flooded condition. Rice seedlings of the 3-leaf stage were transplanted and tubers of slender spikerush and arrowhead and the seeds of barnyardgrass, monochoria and broad-leaved weed were sowed therein and grown for 5 days. When germination occurs, a designed amount of the test compound formulated into an emulsifiable concentrate according to Preparation Example 2 was applied to the pots by dripping. The test plants were grown for a further 3 weeks, and herbicidal activity and phytotoxicity were examined. The herbicidal activity was evaluated in figures ranging from 0 to 5. The phytotoxicity to the crop plants was also indicated on the same standard as that of the herbicidal activity.

arrowhead = assay: as above; assay type: in vivo, Sagittaria pygmaea
Method: as §1, §2

rice plant = assay: Test Example 7, flooded paddy pot dripping, phytotoxicity to rice plant; assay type: in vivo
Method: as §1, §2

slender spikerush = assay: Test Example 7, flooded paddy pot dripping, herbicidal activity; assay type: in vivo, Eleocharis acicularis
Method: as §1, §2

barnyardgrass = assay: as above; assay type: in vivo, Echinochloa crus-galli
Method: as §1, §2
Further: ranges in brackets are in %.

With `O=C1C2=C(CCCC2)C(=O)N1c1ccc(Cl)cc1F` [A, 2-fluoro-4-chlorophenyltetrahydrophthalimide, reference compound] the “Herbicidal activity, Broad-leaved weed” value (broad-leaved weed; 2.5 g/are) was 4 (70-89), the “Herbicidal activity, Broad-leaved weed” value (broad-leaved weed; 5 g/are) was 5 (90-100) and the “Herbicidal activity, Broad-leaved weed” value (broad-leaved weed; 10 g/are) was 5 (90-100). For the same compound, the “Herbicidal activity, Allowhead” value (arrowhead; 2.5 g/are) was 2 (30-49), the “Herbicidal activity, Allowhead” value (arrowhead; 5 g/are) was 3 (50-69) and the “Herbicidal activity, Allowhead” value (arrowhead; 10 g/are) was 3 (50-69). The “Phytotoxicity, Rice plant” value (rice plant; 2.5 g/are) was 1 (10-29), the “Phytotoxicity, Rice plant” value (rice plant; 5 g/are) was 1 (10-29) and the “Phytotoxicity, Rice plant” value (rice plant; 10 g/are) was 2 (30-49). The “Herbicidal activity, Slender spikerush” value (slender spikerush; 2.5 g/are) was 2 (30-49), the “Herbicidal activity, Slender spikerush” value (slender spikerush; 5 g/are) was 3 (50-69) and the “Herbicidal activity, Slender spikerush” value (slender spikerush; 10 g/are) was 4 (70-89). For the same compound, the “Herbicidal activity, Barnyardgrass” value (barnyardgrass; 2.5 g/are) was 1 (10-29), the “Herbicidal activity, Barnyardgrass” value (barnyardgrass; 5 g/are) was 3 (50-69) and the “Herbicidal activity, Barnyardgrass” value (barnyardgrass; 10 g/are) was 4 (70-89).
